From US12661355B2, “Compounds and methods for inducing UCP1 expression” (The Regents of the University of California, priority 2020, dated 2026) come the findings set out here.

Molecules are shown by their SMILES.

The subject of experiment [1] is UCP1. The experiment is described as follows: Gene expression in immortalized human white adipocytes. The class given is cell-based. The settings on record: 10 μM for 4 days. Here is the method:
(§1) Human immortalized brown and white preadipocytes were obtained from Dr. Yu-Hua Tseng (Joslin Diabetes Center, Harvard Medical School, USA). The generation of the two cell lines from human neck adipose tissue biopsies and immortalization was performed as previously described but from a different donor. Cells were cultured in high glucose DMEM supplemented with 10% FBS and antibiotics. Two days after reaching confluence, cells were treated with 30 μM biotin, 500 nM insulin, 17 μM pantothenate, 100 nM dexamethasone, 2 nM 3,3′,5-Triiodo-L-thyronine, 500 μM IBMX, 30 μM indomethacin and 1 μM rosiglitazone, for 12 days. Afterwards, cells were treated with 30 μM biotin, 500 nM insulin, 17 μM pantothenate and 2 nM 3,3′,5-Triiodo-L-thyronine (Maintenance media) for 2 days with end-point assays performed on day 18, and for 5 days with end-point assays performed on day 21, for the brown and white adipocytes cells, respectively.
Mouse RNA levels were measured by qPCR according to known methods. Data were normalized to B2m and Tbp reference genes. Human RNA was extracted using an RNA Mini Plus kit (Zymo) and gene expression determined by Taqman assay. The 1-step qPCR was run on a QuantStudio 12K Flex Real Time PCR System (ThermoFisher) using the following protocol: 50° C. for 5 minutes, 95° C. for 20 seconds, 40 cycles of 95° C. for 15 seconds and 60° C. for 60 seconds. […]

The subject of experiment [2] is human white adipocyte cell line. The experiment is described as follows: Cellular respiration in human white adipocytes. The class given is cell-based. The settings on record: 10 μM for 4 days. Here is the method:
as §1, with “Afterwards, cells were treated with 30 μM biotin, 500 nM insulin, 17 μM pantothenate and 2 nM 3,3′,5-Triiodo-L-thyronine (Maintenance media) for 2 days with end-point assays performed on day 18, and for 5 days with end-point assays performed on day 21, for the brown and white adipocytes cells, respectively.” left out
Cellular respiration was measured using a Seahorse XF24 or XF96 analyzer (Agilent) following known protocols Immortalized brown adipocytes were differentiated in 6-well plates and replated in the Seahorse XF24 plates at a density of 50,000 cells per well using trypsin and collagenase type II. […] Oxygen consumption rates were measured before and after the sequential injection of 1 μM oligomycin, 1 μM FCCP, and 0.5 μM rotenone/antimycin A. For these cells, results were normalized to cell count determined by nuclei fluorescent staining with Hoescht staining imaged on Cytation 5 Imaging Reader and analysis with Gen5 software (BioTek). […] Maximal respiration was determined after FCCP injection.

For experiment [3], the system named is PKA subunits. Briefly: Western blot of mitochondria-associated proteins, PKA subunits. Type of experiment: cell-based, mouse. The conditions noted are these: brown adipocytes, 10 μM, after 6-8 h. Here is the method:
Cells and tissues were lysed in 10 mM Tris pH 7.5, 10 mM NaCl, 1 mM EDTA and 0.5% Triton X-100, supplemented with complete mini EDTA-free protease (Roche Diagnostics) and phosphatase (Cocktail 2 and 3, Sigma) inhibitors, followed by 10 second sonication. For analysis of mitochondrial proteins, mitochondria were isolated from cells by dual centrifugation, as described. Protein lysates were separated by SDS-PAGE and transferred to a nitrocellulose membrane. Transfer was confirmed by Ponceau staining (P7170, Sigma). After blocking in 5% milk, 0.1% Tween-20 in Tris-buffered saline (TBS), primary antibody was incubated overnight at 4° C. in 5% bovine serum albumin and 0.1% Tween-20 in TBS. Primary antibodies against ACTB (GTX109639, GeneTex), AKAP1 (5203, Cell Signaling), AKAP6 (07-087, Millipore), Cytochrome c (136F3, Cell Signaling), electron transport chain protein complexes (Total OXPHOS rodent WB antibody cocktail ab110413, Abcam), GAPDH (GTX100118, Genetex), active p38 MAPK (V1211, Promega), total p38 MAPK (8690, Cell Signaling), PGC1α (AB3242, Millipore), phospho-(Ser/Thr) PKA substrate (9621, Cell Signaling), PKA C-α (4782, Cell Signaling), PKA RII-β (ab75993, Abcam), and UCP1 (662045, Calbiochem) were used at 1:2000. […] Quantification using representative bands from the Ponceau staining was performed with ImageJ. […]
In general terms: In western blotting, separated proteins are transferred to a membrane and probed.

Experiment [4] relates to AKAP1mut cells. The experiment is described as follows: Gene expression in AKAP1mut and AKAP1wt brown adipocyte cell lines. The class given is cell-based, mouse. The conditions noted are these: 10 μM. Here is the method:
RNA levels were measured by qPCR according to known methods. Briefly, RNA was extracted with TRIzol (Invitrogen) and reverse transcribed with iScript (Bio-Rad). Real-time PCR analysis was performed with a CFX Connect (Bio-Rad).
Two gRNAs were selected using sgRNA Designer from the Broad Institute (gRNA1: […] (SEQ ID NO: 46) and gRNA2: […] (SEQ ID NO: 47)). Cloning was performed using pSpCas9 (BB)-2A-puro (PX459) V2.0 vector (Addgene plasmid #62988). Plasmid construction was confirmed by sequencing. A puromycin-sensitive brown adipocyte cell line was transfected with the two plasmids and selected with […] puromycin. Single-cell cloning was performed in a 96-well plate and clones selected by Western blot to detect AKAP1 protein knockdown, and confirmed by sequencing after PCR amplification (PCR primers: […] (SEQ ID NO: 48) and […] (SEQ ID NO: 49)).
To further assess the requirement of AKAP1 to mediate the effects of Z160, AKAP1 was inactivated in an immortalized brown adipocyte cell line (AKAP1wt) using CRISPR/Cas9 gene editing. One clone (AKAP1mut) was selected based on very low AKAP1 protein levels (FIG. 10A).

Turning to `COc1ccc(NC(=O)CSc2nc3ccccc3c(=O)[nH]2)c(OC)c1` [Z160], in experiment [1], the UCP1 expression stood at 7 fold; the “expression of CIDEA, ACADM, CPT1B and ELOVL3” value is reported as “greatly increased expression”. In experiment [2], the maximal respiration entry is on record as “increased” and the “mitochondrial respiration (uncoupled)” value is listed as “increased”. For the same compound, in experiment [3], the “mitochondrial association of PKA subunits” value is listed as “increased mitochondrial association”. In experiment [4] (AKAP1mut vs AKAP1wt), the “induced expression of Hoxa5, Cidea, Elovl3, Acox1 and Cpt1b in AKAP1mut” value is given as “blunted or reduced”. Also, the “Ucp1 expression response in AKAP1mut cells” value in experiment [4] (AKAP1mut) was “did not respond”. Also, in experiment [4] (both AKAP1wt and AKAP1mut cells), the Ppargc1a expression entry is “increased”.
